Measured values taken from US7390836B2, “Small molecules used to increase cell death” (priority 1999, dated 2008).

How the values were obtained:
FL5.12/Bcl-xL cells = assay: Cell death upon IL-3 deprivation in Bcl-xL overexpressing cells; type: cell-based; settings: PI staining
Description: This effect could be overcome by a higher dose of BH3Is (FIG. 9E). Inactivation of Bcl-xL by BH3Is in FL5.12/Bcl-xL cells was detected as an increase in cell death following IL-3 deprivation.

HeLa cells = assay: Cell death by ATP levels after zVAD-fmk pretreatment; type: cell-based; settings: zVAD-fmk 100 μM pretreatment, 48 or 72 hours
Method: The conditions under which cell death occurs in the presence of BH3Is were further evaluated. HeLa cells were pretreated with zVAD-fmk (100 μM) for 1 hour. The purpose of such a treatment was to inhibit the intracellular pathways mediating cell death by apoptosis. Each of the chemical compounds BH3I-1, BH3I-1′, or BH3I-2 was then added to the media of the cells of three separate samples. After 48 or 72 hours of exposure of the cells to zVAD-fmk and the chemical compound, the level of cell death was measured for each sample, by measuring cellular ATP levels.

[1] = molecular target: T1, Bcl-xL/Bax heterodimerization in 293 cells (Homo sapiens, UniProt Q07817); assay: FRET between Bcl-xL-CFP and Bax-YFP in intact cells; type: cell-based; settings: rank order; for order of relative effects on YFP fluorescence reduction: rough index of cell death
T1 construct: expressed in transfected cells; host or cells: 293 cells
T1 sequence (Q07817 whole entry, one chain of several): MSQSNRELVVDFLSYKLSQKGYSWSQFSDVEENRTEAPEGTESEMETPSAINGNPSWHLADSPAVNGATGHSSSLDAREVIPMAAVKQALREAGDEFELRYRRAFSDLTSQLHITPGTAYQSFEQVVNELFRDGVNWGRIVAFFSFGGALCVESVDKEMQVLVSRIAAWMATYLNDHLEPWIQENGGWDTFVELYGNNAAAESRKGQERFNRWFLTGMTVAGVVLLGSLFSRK
Description: The effect of the BH3Is on the disruption of the heterodimerization of Bcl-2 family proteins in vivo was next determined. Dimerization of Bcl-2 in immunoprecipitation experiments may represent post-lysis events induced by detergents (Hsu et al., J. Biol. Chem. 272:13829-34, 1997). Therefore, these studies focused on assaying the Bcl-xL dimerization status in intact cells. Recently, the interaction between Bax and Bcl-2 has been studied in intact living cells by fluorescent resonance energy transfer measurements between GFP fusion proteins (Mahajan et al., Nat. Biotechnol. 16:547-52, 1998). This approach was used to monitor the effects of BH3Is on Bcl-xL/Bax heterodimerization in intact cells.
293 cells were transfected with Bcl-xL-CFP and Bax-YFP expression vectors using Lipofectamine Plus (Gibco) or TransLT-1 (PanVera) and 24 hr later were treated with BH3Is. Cells were harvested in PBS supplemented with BH3Is, and fluorescence was determined using a C-60 fluorimeter (PTI) or a Wallac platereader. Fluorescence in the samples separately overexpressing Bax and Bcl-xL was added together and used to estimate the FRET value in the absence of dimerization. The extent of FRET between CFP and YFP was determined as a ratio of fluorescence at 527 nm vs. 475 nm after excitation at 433 nm.

[2] = test system: Bak BH3 peptide / Bcl-xL (Bcl-xL/GST, Bcl-xL-His6) interaction; assay: Fluorescence polarization assay, labeled Bak BH3 peptide binding to Bcl-xL fusion protein; settings: for order of affinities of BH3Is: overall rank order from FP, NMR, pulldown and SELDI results; for order of decreasing affinity, fluorescence polarization assays: rank order
Description: We have used a fluorescence polarization assay to screen a library of 16,000 chemical compounds (ChemBridge, San Diego, Calif.) to identify small molecules that inhibit the interaction between a peptide corresponding to the BH3 domain of a pro-apoptotic protein and a recombinant Bcl-xL/GST fusion protein. In this assay, an […] peptide corresponding to the BH3 domain of Bak was used. The Bak peptide was labeled with a fluorescent tag, such as OREGON GREEN. Upon binding of the tagged peptide to the Bcl-xL/GST fusion protein, the polarization of light emitted by the tagged peptide is altered. […] Conversely, in a sample in which a compound does inhibit the interaction between the Bak peptide and the Bcl-xL/GST fusion protein the polarization of light emitted by the peptide will not be altered.
A nineteen amino acid Bak peptide, corresponding to the BH3 domain of Bak, with the sequence […] (SEQ ID NO: 2) was labeled with the fluorophore OREGON GREEN according to the manufacturer's instructions (Molecular Probes, Eugene, Oreg.). In addition, a recombinant Bcl-xL/GST fusion protein was generated using conventional techniques known to those skilled in the fields of biochemistry and molecular biology. The interaction between the Bak peptide and the Bcl-xL/GST fusion protein was confirmed.
A screen of approximately 16,000 compounds from the ChemBridge chemical compound library was conducted to identify compounds that disrupt the interaction between the Bak peptide and the Bcl-xL/GST fusion protein. The ability of a compound to disrupt the interaction between the two polypeptides was assessed using a fluorescence polarization assay. The Bak peptide and Bcl-xL/GST fusion protein (15 nM each; dissolved in PBS) were first combined, and then the compound was added. Alternatively, the Bak peptide, Bcl-xL/GST fusion protein, and test compound (5 mg/ml; dissolved in 0.1-0.5 gl of DMSO) may be combined in any order. Normally the unbound Bak polypeptide results in polarization of approximately 40 mP units. Upon binding of the Bcl-xL/GST fusion protein, polarization increased to approximately 100-120 mP units.
In a preferred method, the fluorescence assay was carried out as follows. Bak BH3 peptide (Research Genetics) was labeled using NHS-OREGON GREEN (Molecular Probes) and purified by HPLC. For the initial screening assays, 33 nM of labeled BH3 peptide, 2 μM of GST-Bcl-xL protein, 0.1% bovine gamma globulin (BGG, Sigma) and 1 mM DTT mixed with PBS, pH 7.2 (Gibco) were added into 384 well black plates (Lab Systems) using MULTIDROP (Lab Systems). Small molecules (5 mg/ml in DMSO, ChemBridge) were transferred using plastic 384-pin arrays (Genetix). The plates were incubated for 1-2 hr at 25° C., and the fluorescence polarization assay values were determined using an Analyst plate reader (LJL Biosystems). Reactions containing 16.65 nM of labeled BH3 peptide and 4.2 μM of Bcl-xL-His6 fusion protein, which was previously utilized to characterize BH3/Bcl-xL binding (Sattler et al., Science 275:983-6, 1997) were used for the further fluorescence polarization analyses. Kd and Ki determination was performed as previously described using […] PRISM software package (GraphPad) (Dandliker et al., Methods Enzymol. 74:3-28,1981).
In a further screen, various concentrations of each of the above-identified compounds were evaluated for their potency. A serial dilution of each chemical compound was performed and the fluorescence polarization assay was repeated, as per the primary screen. As a result of the secondary screening, three compounds, chemical compound ID numbers 275805 (BH3I-1; FIG. 1), 282986 (BH3I-1′; FIG. 2), and 175362 (BH3I-2; FIG. 3), collectively termed “BH3Is,” were identified to disrupt the interaction between Bak and the BCL-xL/GST fusion protein. […] Additional homologues of the BH3I-1s (BH3I-1″ and BH3I-1′″) and BH3I-2 (BH3-2″ and BH3I-2″) were also analyzed in the study (FIG. 4). […]

| Compound | cytotoxicity upon IL-3 deprivation (FL5.12/Bcl-xL cells) | cellular ATP levels (HeLa cells) | order of changes in the FRET ratio [1] | order of relative effects on YFP fluorescence reduction [1] | order of affinities of BH3Is [2] | order of decreasing affinity, fluorescence polarization assays [2] |
| --- | --- | --- | --- | --- | --- | --- |
| CC(C)C(C(=O)O)N1C(=O)C(=Cc2ccc(Br)cc2)SC1=S (stereo in doubt) [BH3I-1] | significantly increased upon IL-3 deprivation | cellular ATP levels decreased | BH3I-2>BH3I-1>BH3I-1″ | BH3I-2>BH3I-I>BH3I-1″ | BH312′>BH3I-2>BH3I-2″>BH3I-1>BH3I-1′>BH3I-1″>BH3I-1′″ | BH3I-1>BH3I-1′>BH3I-2′>BH3I-2>BH3I-2″>BH3I-1″ |
| CC(C)C(C(=O)O)N1C(=O)/C(=C/c2ccccc2)SC1=S (stereo not shown) [BH3I-1″] | – | – | BH3I-2>BH3I-1>BH3I-1″ | BH3I-2>BH3I-I>BH3I-1″ | BH312′>BH3I-2>BH3I-2″>BH3I-1>BH3I-1′>BH3I-1″>BH3I-1′″ | BH3I-1>BH3I-1′>BH3I-2′>BH3I-2>BH3I-2″>BH3I-1″ |
| O=C(Nc1cc(S(=O)(=O)c2ccc(Cl)cc2)ccc1Cl)c1cc(Cl)cc(Br)c1O [BH3I-2] | significantly increased upon IL-3 deprivation | cellular ATP levels decreased | BH3I-2>BH3I-1>BH3I-1″ | BH3I-2>BH3I-I>BH3I-1″ | BH312′>BH3I-2>BH3I-2″>BH3I-1>BH3I-1′>BH3I-1″>BH3I-1′″ | BH3I-1>BH3I-1′>BH3I-2′>BH3I-2>BH3I-2″>BH3I-1″ |
